We go through two molecules from article PMC7179302, “Lead Optimization of Dehydroemetine for Repositioned Use in Malaria” (Antimicrobial Agents and Chemotherapy, 2020).

Data set [1] has as its system mitochondrial membrane potential of P. falciparum strain K1 trophozoites. The data set can be described thus: Rhodamine 123 staining for mitochondrial membrane potential, flow cytometry. The class given is cell-based, Plasmodium falciparum. The note with it: deviation from infected blood without drugs. Here is the method: Changes in mitochondrial membrane potential were measured using rhodamine 123 (excitation wavelength, 511 nm; emission wavelength, 534 nm), a membrane-permeating cationic fluorescent dye ([49]), which accumulates by electrostatic attraction in the mitochondria because of its negative transmembrane potential. A change in the dye’s concentration in the mitochondria is caused by a depolarization event and can be visualized as a shift in the fluorescence intensity of rhodamine 123 ([50]). Draq5 (excitation wavelength, 647 nm; emission wavelength, >665 nm) is a far-red fluorescent DNA dye which is cell permeating and was used to distinguish the parasites in flow cytometry in the allophycocyanin (APC)-Cy7-A channel. SYBR green was not preferred for this experiment as it emits in the same channel as rhodamine 123 and would result in the overlap of emission signals. Fluorescence microscopy was used to visualize the localization of rhodamine 123 within the cytoplasm of the parasites (Fig. 9).
A decrease in fluorescence intensity measured in the fluorescein isothiocyanate (FITC)-A channel indicates a loss of mitochondrial membrane potential. Atovaquone, a known mitochondrial inhibitor, was used as a control.
Compounds were then washed away by centrifuging the cultures, and a pellet was prepared for each drug concentration. Pellets were then incubated with 1 ml of 200 nM rhodamine 123 for 1 h, followed by a further incubation with 100 μl of 5 μM Draq5 for 20 min. After a wash with PBS, the experiment was read with a flow cytometer on the FITC channel. Loss of mitochondrial membrane potential was indicated by a decrease in fluorescence intensity.
In general terms: A flow cytometer gives signals particle by particle.

The subject of another data set is Entamoeba histolytica. More on the design: method as in PMID 15610563, PMID 24107123. The note with it: cited from earlier work.
The subject of another data set is P. falciparum strain Dd2. The data set can be described thus: microbe, parasite or virus in culture. The class given is cell-based. The note with it: Plasmodium falciparum, DD2, read-out: IC50 (μM) Dd2. Here is the method: (§1) The cross-resistance assay used relies on the parasites’ incorporation of labeled 3H-hypoxanthine, which is proportional to P. falciparum growth. In vitro cross-resistance of the compounds is measured as the ratio between the IC50 for the tested P. falciparum strain and the IC50 for strain 3D7A. Every replicate from a multidrug-resistant (MDR) strain involved a simultaneous determination using a 3D7A replicate to avoid any artifact linked to experimental conditions.
(§2) The three strains used for the cross-resistance assay were 3D7A, Dd2, and W2, based on their resistance profiles; the assay was carried out by GSK, Tres Cantos. Strain 3D7A is chloroquine sensitive, strain Dd2 is resistant to chloroquine, mefloquine, and pyrimethamine ([57]), and strain W2 is resistant to chloroquine, quinine, pyrimethamine, cycloguanil, and sulfadoxine (from the Malaria Research and Reference Reagent Resource Center [MR4]) ([58]). A culture of red blood cells (RBCs) parasitized by the corresponding strain (0.5% parasitemia, 2% hematocrit) in RPMI 1640, […], and 5 μM hypoxanthine was exposed to 9 dilutions (3-fold serial dilutions) of the compound starting at 5 μM. One hundred microliters of culture volume was plated in 96-well flat-bottom microtiter plates with 0.5 μl drug (200× stock in DMSO). Plates were incubated for 24 h at 37°C, 5% CO2, 5% O2, 90% N2. Next, 3H-hypoxanthine was added and plates were incubated for another 24-h period. After that, parasites were harvested on a glass fiber filter using a TomTec cell harvester 96. Filters were dried, and melt-on scintillator sheets were used to determine the incorporation of 3H-hypoxanthine. Radioactivity was measured using a MicroBeta counter. […] IC50 values were determined using the Grafit 7 program ([41]).

In a further data set the test system is P. falciparum strain W2. Kind of data set: microbe, parasite or virus in culture. The class given is cell-based. The settings on record: Plasmodium falciparum, W2, read-out: IC50 (μM) W2. On the procedure:
as §1, §2

In another data set the test system is HepG2 cells. The data set can be described thus: MTT assay for cell cytotoxicity against HepG2 cells. The format is cell-based. The note with it: HepG2 cells, 48 h; ± SD. On the procedure:
HepG2 cells (University of Salford stocks, purchased from American Type Culture Collection [ATCC], USA), were grown in medium consisting of RPMI 1640, 2 mM L-glutamine, HEPES, 10% fetal bovine serum, 1% nonessential amino acids, and 1% penicillin-streptomycin. Cells were calculated on a hemocytometer to make a new cell-medium solution to a concentration of 5,000 cells/100 μl, and 100 μl of this new cell solution was added into each well of the 96-well plate. After 24 h of incubation, 100-μl amounts of the drug prepared in the medium were added to the wells. This was repeated in triplicate, and the plate was incubated for a further 48 h ([56]). After the incubation period, 50 μl of MTT solution was added to each well and incubated for 3 h. The liquid in each well was aspirated carefully, 200 μl of DMSO was added to each well, and the results were read on the Ascent plate reader.
For orientation: Tetrazolium assays rely on reduction of a dye to a coloured formazan, in cell work by metabolically active cells.

In data set [2] the test system is P. falciparum strain 3D7A. Kind of data set: 3H-hypoxanthine incorporation assay, strain 3D7A. The format is cell-based. The note with it: Plasmodium falciparum; sensitive strain 3D7A, 3H-hypoxanthine incorporation; read-out: IC50 (μM) 3D7A. Here is the method: as §1, §2
Data set [3] has as its system K1 strain of P. falciparum. Also on record: method as in PMID 15610563, PMID 24107123. The note with it: mean ± standard deviation; cited from earlier work.

Structures can show the parent of a compound that is named as a salt.

For the molecule `O=C1C(O)=C([C@H]2CC[C@H](c3ccc(Cl)cc3)CC2)C(=O)c2ccccc21` [Atovaquone, atovaquone], the “Change in fluorescence intensity (FITC-A mean) of rhodamine 123” value is on record as 43.17% in data set [1] (at 10× IC50, 2 h) and 41.95% in data set [1] (at IC50, 2 h).

On to `CC[C@H]1CN2CCc3cc(OC)c(OC)cc3[C@@H]2C[C@@H]1C[C@H]1NCCc2cc(OC)c(OC)cc21` [Emetine dihydrochloride, emetine dihydrochloride, reference compound], for which the concentration for half-maximal inhibition (IC50) in the data set on Entamoeba histolytica is 26800 ± 1270 nM; in the data set with P. falciparum strain Dd2, 0.269 µM; in the data set on P. falciparum strain W2, 0.181 µM; in data set [2] it was 0.234 µM; in data set [3] it was 47 nM. The “Change in fluorescence intensity (FITC-A mean) of rhodamine 123” value worked out at 35.13% in data set [1] (at 10× IC50, 2 h) and 31.12% in data set [1] (at IC50, 2 h). The “LD50 (50% lethal dose), MTT assay” value in the data set on HepG2 cells was found to be 199.2 ± 9.3 nM.

Broadly, the IC50 is the concentration that gives 50% inhibition.
